Here are results for 29 compounds from patent US20170037028A1 (BAYER PHARMA AKTIENGESELLSCHAFT, priority 2013, published 2017).

Usually IC50 stands for the concentration that gives 50% inhibition.

The target of the experiment is T1, GLUT1 (Homo sapiens, UniProt P11166).
T1 sequence (P11166 1-492): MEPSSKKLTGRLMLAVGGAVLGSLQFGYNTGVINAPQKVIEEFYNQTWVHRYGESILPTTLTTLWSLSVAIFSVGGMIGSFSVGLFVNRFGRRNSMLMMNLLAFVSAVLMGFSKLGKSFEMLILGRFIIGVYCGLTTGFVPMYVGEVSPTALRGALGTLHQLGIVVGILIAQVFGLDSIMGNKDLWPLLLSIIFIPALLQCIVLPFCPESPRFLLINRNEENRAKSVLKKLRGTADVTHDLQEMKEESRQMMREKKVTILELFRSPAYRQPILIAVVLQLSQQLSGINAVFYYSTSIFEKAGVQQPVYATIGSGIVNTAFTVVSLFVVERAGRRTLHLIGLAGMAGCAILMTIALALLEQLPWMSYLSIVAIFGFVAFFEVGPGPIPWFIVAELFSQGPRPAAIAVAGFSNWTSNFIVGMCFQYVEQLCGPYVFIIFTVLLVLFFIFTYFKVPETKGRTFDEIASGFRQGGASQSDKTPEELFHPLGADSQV
Briefly: Indirect measurement of GLUT1 activity by quantification of intracellular ATP levels (glucose induced ATP increase). In kind it is cell-based. On the set-up: endogenous in cells; host or cells: DLD1 or CHO-K1. The settings on record: read-out: IC50 regarding glucose induced ATP increase (GLUT1 inhibition). The source says:
Indirect Measurement of GLUT1 and GLUT2 Activity by Quantification of Intracellular ATP Levels
It is well known that a combination of small-molecule inhibitors of mitochondrial electron transport chain and glucose catabolism synergistically suppress ATP production and impair cellular viability (Ulanovskaya et al., 2008, 2011; Liu, et al. 2001). We therefore used DLD1 or CHO-K1 cells in combination with an oxidative phosphorylation inhibitor to identify GLUT1 and GLUT2 inhibitors. Cell lines were maintained in DMEM medium supplemented with 10% FCS and 1% Penicillin-Streptomycin solution and 2% Glutamax. The cells were treated with trypsin and seeded into 384 plates at a density of 4000 cells/well. The cells were then cultured overnight in glucose free media containing 1% FCS to reduce intracellular ATP levels. […] The CellTiter-Glo® Luminescent Cell Viability Assay from Promega was then used to measure ATP Levels.
On to `Cc1c(NC(=O)c2cc(C(N)=O)nc3cc(F)ccc23)c(C(F)(F)F)nn1C(C)c1ccccc1` (single isomer, unassigned) [Example 379, (R or S)-7-fluoro-N^4-[5-methyl-1-(1-phenylethyl)-3-(trifluoromethyl)-1H-pyrazol-4-yl]quinoline-2,4-dicarboxamide], for which the IC50 came to 862 nM. Take `COc1ccc(Cn2nc(C)c(NC(=O)c3cc(OC)nc4ccccc34)c2C)cc1` [Example 1, 2-methoxy-N-[1-(4-methoxybenzyl)-3,5-dimethyl-1H-pyrazol-4-yl]quinoline-4-carboxamide]: the IC50 amounted to 1.6 nM. The result for `Cc1nn(Cc2ccc(F)cc2)c(C)c1NC(=O)c1cc(C(C)C)nc2ccc(Br)cc12` [Example 2, 6-bromo-N-[1-(4-fluorobenzyl)-3,5-dimethyl-1H-pyrazol-4-yl]-2-(propan-2-yl)quinoline-4-carboxamide] reads 2.8 nM; that for `COc1ccc(Cn2nc(C)c(NC(=O)c3cc(C(F)(F)F)nc4ccc(Br)cc34)c2C)cc1` [Example 3, 6-bromo-N-[1-(4-methoxybenzyl)-3,5-dimethyl-1H-pyrazol-4-yl]-2-(trifluoromethyl)quinoline-4-carboxamide], 3.1 nM; that for `COc1ccc(Cn2nc(C)c(NC(=O)c3cc(C)nc4ccc(C)cc34)c2C)cc1` [Example 4, N-[1-(4-methoxybenzyl)-3,5-dimethyl-1H-pyrazol-4-yl]-2,6-dimethylquinoline-4-carboxamide], 3.8 nM.

Consider `Cc1nn(Cc2ccccc2C#N)c(C)c1NC(=O)c1cc(C(F)(F)F)nc2ccc(Br)cc12` [Example 6, 6-bromo-N-[1-(2-cyanobenzyl)-3,5-dimethyl-1H-pyrazol-4-yl]-2-(trifluoromethyl)quinoline-4-carboxamide], for which the IC50 was determined as 4.7 nM. Take `Cc1ccc2nc(C3CC3)cc(C(=O)Nc3c(C)nn(Cc4ccc(F)cc4)c3C)c2c1` [Example 7, 2-cyclopropyl-N-[1-(4-fluorobenzyl)-3,5-dimethyl-1H-pyrazol-4-yl]-6-methylquinoline-4-carboxamide]: the IC50 worked out at 4.9 nM.

As for `COc1ccc(Cn2nc(C)c(NC(=O)c3cc(C(F)(F)F)nc4c(Cl)cc(Cl)cc34)c2C)cc1` [Example 8, 6,8-dichloro-N-[1-(4-methoxybenzyl)-3,5-dimethyl-1H-pyrazol-4-yl]-2-(trifluoromethyl)quinoline-4-carboxamide], the IC50 was found to be 5.4 nM. Take `Cc1nn(Cc2ccc(F)cc2)c(C)c1NC(=O)c1cc(C(F)(F)F)nc2ccc(Br)cc12` [Example 9, 6-bromo-N-[1-(4-fluorobenzyl)-3,5-dimethyl-1H-pyrazol-4-yl]-2-(trifluoromethyl)quinoline-4-carboxamide]: the IC50 amounted to 6.2 nM. To `Cc1nn(Cc2ccc(F)cc2)c(C)c1NC(=O)c1cc(C2CC2)nc2ccc(F)cc12` [Example 10, 2-cyclopropyl-6-fluoro-N-[1-(4-fluorobenzyl)-3,5-dimethyl-1H-pyrazol-4-yl]quinoline-4-carboxamide] belongs 6.4 nM; to `Cc1nn(Cc2ccc(C#N)cc2)c(C)c1NC(=O)c1cc(C(F)(F)F)nc2c(Cl)cc(Cl)cc12` [Example 11, 6,8-dichloro-N-[1-(4-cyanobenzyl)-3,5-dimethyl-1H-pyrazol-4-yl]-2-(trifluoromethyl)quinoline-4-carboxamide], 6.6 nM; to `Cc1nn(Cc2ccc(F)cc2)c(C)c1NC(=O)c1cc(C2CC2)nc2ccc(Br)cc12` [Example 12, 6-bromo-2-cyclopropyl-N-[1-(4-fluorobenzyl)-3,5-dimethyl-1H-pyrazol-4-yl]quinoline-4-carboxamide], 7.7 nM. To `Cc1nn(Cc2c(F)cccc2F)c(C)c1NC(=O)c1cc(C(F)(F)F)nc2ccc(Br)cc12` [Example 13, 6-bromo-N-[1-(2,6-difluorobenzyl)-3,5-dimethyl-1H-pyrazol-4-yl]-2-(trifluoromethyl)quinoline-4-carboxamide] belongs 11.3 nM; to `Cc1nn(Cc2ccc(F)cc2)c(C)c1NC(=O)c1cc(C(F)(F)F)nc2ccc(Cl)cc12` [Example 14, 6-chloro-N-[1-(4-fluorobenzyl)-3,5-dimethyl-1H-pyrazol-4-yl]-2-(trifluoromethyl)quinoline-4-carboxamide], 11.5 nM.

On to `Cc1nn(Cc2ccc(F)cc2)c(C)c1NC(=O)c1cc(C2CC2)nc2c(Br)cccc12` [Example 16, 8-bromo-2-cyclopropyl-N-[1-(4-fluorobenzyl)-3,5-dimethyl-1H-pyrazol-4-yl]quinoline-4-carboxamide], for which the 50% inhibitory concentration (IC50) worked out at 12.1 nM. The result for `COc1cc(C(=O)Nc2c(C)nn(Cc3ccc(F)cc3F)c2C)c2ccccc2n1` [Example 17, N-[1-(2,4-difluorobenzyl)-3,5-dimethyl-1H-pyrazol-4-yl]-2-methoxyquinoline-4-carboxamide] reads 12.2 nM. To `Cc1nn(Cc2ccc(F)cc2)c(C)c1NC(=O)c1cc(C(F)(F)F)nc2c(Br)cccc12` [Example 18, 8-bromo-N-[1-(4-fluorobenzyl)-3,5-dimethyl-1H-pyrazol-4-yl]-2-(trifluoromethyl)quinoline-4-carboxamide] belongs 12.4 nM; to `Cc1nn(Cc2ccc(F)cc2)c(C)c1NC(=O)c1cc(C2CC2)nc2ccccc12` [Example 19, 2-cyclopropyl-N-[1-(4-fluorobenzyl)-3,5-dimethyl-1H-pyrazol-4-yl]quinoline-4-carboxamide], 12.7 nM.

With `Cc1nn(Cc2c(F)cccc2F)c(C)c1NC(=O)c1cc(C(F)(F)F)nc2c(Cl)cc(Cl)cc12` [Example 20, 6,8-dichloro-N-[1-(2,6-difluorobenzyl)-3,5-dimethyl-1H-pyrazol-4-yl]-2-(trifluoromethyl)quinoline-4-carboxamide], the IC50 worked out at 12.7 nM. The result for `Cc1cc(Br)c2nc(C(F)(F)F)cc(C(=O)Nc3c(C)nn(Cc4ccc(F)cc4)c3C)c2c1` [Example 21, 8-bromo-N-[1-(4-fluorobenzyl)-3,5-dimethyl-1H-pyrazol-4-yl]-6-methyl-2-(trifluoromethyl)quinoline-4-carboxamide] reads 14.8 nM; that for `Cc1nn(Cc2ccc(F)cc2)c(C)c1NC(=O)c1cc(C(F)(F)F)nc2ccc(Cl)c(Cl)c12` [Example 22, 5,6-dichloro-N-[1-(4-fluorobenzyl)-3,5-dimethyl-1H-pyrazol-4-yl]-2-(trifluoromethyl)quinoline-4-carboxamide], 15.4 nM. For `COc1cc(C(=O)Nc2c(C)nn(Cc3ccc(OC(F)(F)F)cc3)c2C)c2ccccc2n1` [Example 23, N-{3,5-dimethyl-1-[4-(trifluoromethoxy)benzyl]-1H-pyrazol-4-yl}-2-methoxyquinoline-4-carboxamide], the IC50 is 15.4 nM.

For the compound `Cc1ccccc1Cn1nc(C)c(NC(=O)c2cc(C(F)(F)F)nc3ccc(Br)cc23)c1C` [Example 24, 6-bromo-N-[3,5-dimethyl-1-(2-methylbenzyl)-1H-pyrazol-4-yl]-2-(trifluoromethyl)quinoline-4-carboxamide], the IC50 amounted to 15.5 nM.

On to `Cc1nn(Cc2ccc(F)cc2)c(C)c1NC(=O)c1cc(C(F)(F)F)nc2c(Cl)cc(Cl)cc12` [Example 25, 6,8-dichloro-N-[1-(4-fluorobenzyl)-3,5-dimethyl-1H-pyrazol-4-yl]-2-(trifluoromethyl)quinoline-4-carboxamide], for which the IC50 amounted to 15.7 nM. In the case of `Cc1nn(Cc2ccc(F)cc2)c(C)c1NC(=O)c1cc(C(F)(F)F)nc2cccc(F)c12` [Example 26, 5-fluoro-N-[1-(4-fluorobenzyl)-3,5-dimethyl-1H-pyrazol-4-yl]-2-(trifluoromethyl)quinoline-4-carboxamide], the IC50 came to 15.7 nM. To `COc1cc(C(=O)Nc2c(C)nn(Cc3ccc(F)cc3)c2C)c2ccccc2n1` [Example 27, N-[1-(4-fluorobenzyl)-3,5-dimethyl-1H-pyrazol-4-yl]-2-methoxyquinoline-4-carboxamide] belongs 16.5 nM; to `Cc1cccc(Cn2nc(C)c(NC(=O)c3cc(C(F)(F)F)nc4c(Cl)cc(Cl)cc34)c2C)c1` [Example 28, 6,8-dichloro-N-[3,5-dimethyl-1-(3-methylbenzyl)-1H-pyrazol-4-yl]-2-(trifluoromethyl)quinoline-4-carboxamide], 16.8 nM; to `Cc1nn(Cc2ccc(F)cc2)c(C)c1NC(=O)c1cc(C(F)(F)F)nc2cc(F)ccc12` [Example 29, 7-fluoro-N-[1-(4-fluorobenzyl)-3,5-dimethyl-1H-pyrazol-4-yl]-2-(trifluoromethyl)quinoline-4-carboxamide], 19 nM. To `Cc1nn(Cc2ccc(F)cc2)c(C)c1NC(=O)c1cc(C(F)(F)F)nc2ccc(F)cc12` [Example 30, 6-fluoro-N-[1-(4-fluorobenzyl)-3,5-dimethyl-1H-pyrazol-4-yl]-2-(trifluoromethyl)quinoline-4-carboxamide] belongs 19.5 nM.
